Experimental data: patent publication US10238113B2, “Method for protecting plants from stress and senescence” (BEN-GURION UNIVERSITY OF THE NEGEV RESEARCH AND DEVELOPMENT …, priority 2008, dated 2019)

What was measured:
[1] = tested on: leaf discs cut from Col and Atxdh mutants rosette leaves; assay: Leaf discs treated with purine catabolites under dark-induced stress, remaining chlorophyll; format: in vivo, Arabidopsis thaliana; conditions: for protection from chlorophyll degradation: 0.1 mM, applied 2 h after 48 h dark treatment, +/- allopurinol, Col and Atxdh mutants
Protocol: (§1) FIG. 8a: xanthine (1 mM) in the presence or absence of allopurinol (1 mM, +/−Allo), was applied for 48 h to leaf discs placed in the dark and photographed 24 h after being transferred to 16 h light/8 h dark regime (left upper panel). Remaining chlorophyll, xanthine, allantoin and allantoate were determined in leaf discs sampled at the beginning of the experiment (light) or after 72 h (as described above) without xanthine (dark). FIG. 8b: allantoin or allantoate (0.1 mM) in the presence or absence of allopurinol (1 mm, +/−Allo) was applied to leaf discs for 2 h in the dark after keeping the discs in the dark for 48 h. Discs were photographed 24 h after being transferred to 16 h light/8 h dark regime (left upper panel). Leaf discs were washed twice before sampling for xanthine, allantoin and allantoate determination (right and bottom panels). Bars show mean±SEM (n=16).
Cell death was visualized in leaves sampled from dark stressed and control unstressed plants, by lactophenol-trypan blue staining followed by destaining in saturated chloral hydrate (Koch E. and Slusarenko A. 1990 Plant Cell 2, 437-445). Total chlorophyll content was measured in extracts of the fully expanded leaves as described before (Brychkova et al., 2007, ibid). The values for remaining chlorophyll content in leaf discs were determined as the amount of chlorophyll per disc divided by the amount of chlorophyll per untreated control and expressed as a percentage. The severity of leaf damage after dark stress was as follows: 1, no damage; 2, <30%; 3, 30-50%; 4, >50% of the leaf area damaged. The average leaf damage was then multiplied by the total number of damaged leaves to determine the damage level. Means±SEM for each treatment are presented.
The dark-induced loss of chlorophyll and the accelerated cell death during recovery may be due to the accumulation of excess oxypurines (FIG. 5a) or to the lack of a protective environment provided by ureides (FIGS. 5b and 5c) or both. To examine this directly, leaf discs cut from Col and Atxdh mutants rosette leaves were treated with xanthine for 48 h in the dark and were sampled after 24 h in the light. […] The observations indicate that ureides may protect chlorophyll from degradation during dark treatment and the recovery period. To elucidate the role of allantoin and allantoate directly, leaf discs were treated with 0.1 mM allantoin or allantoate. […] Importantly, the protection by the ureides was afforded in spite of the significant accumulation of xanthine in allopurinol-treated Col plants and Atxdh mutants (FIG. 8b).

[2] = tested on: leaf discs of Col and Ri plants; assay: DAB-H2O2 staining of leaf discs treated with allantoin or allantoate; format: in vivo, Arabidopsis thaliana; conditions: 0.1 mM for 2 h after 24 h dark
Protocol: (§2) FIGS. 9a-9c show reactive oxygen species (ROS) accumulation in the presence of allantoin and allantoate in Arabidopsis wild-type (Col) and xdh1 RNA interference (Ri) lines. FIG. 9a left panel: leaf discs removed from Col plants placed for 24 h in the dark in the presence or absence of allantoin or allantoate (0.1 mM) and then washed and treated with H2O2 (0, 20, 50 mM) for an additional 6 h in the dark. Right panel: remaining chlorophyll determined 24 h after the disc were transferred to a 16 h light/8 h dark regime. Bars show mean±SEM (n=16). […] Total H2O2 relative production (right insert) was quantified in leave discs kept in the dark for 24 h and then treated with allantoin or allantoate for additional 2 h in the dark, using DAB staining Results are from two independent experiments. Error bars indicate SE (n=16). The lower case letters (a, b) indicate P<0.001 for the differences within treatment between ecotypes. […] Leaf discs were treated and analyzed as in FIG. 9b above. Total relative superoxide production was quantified in leaf discs from 2 independent experiments. […]
(§3) Nitroblue tetrazolium (NBT) O2^− staining of leaves was performed essentially according to Jabs T. et al. (1996 Science 273, 1853-1856) and Fryer M. J. et al. (2002 J Exp Bot 53, 1249-1254). […] NBT and DAB stained leaves and leaf discs were quantified using NIH Image Software (Version 1.6). […]

[3] = tested on: leaf discs of Col and Ri plants; assay: NBT-O2- staining of leaf discs treated with allantoin or allantoate; format: in vivo, Arabidopsis thaliana; conditions: 0.1 mM for 2 h after 24 h dark; Col lines
Protocol: as §2, §3

[4] = tested on: Col wild type plants; assay: Xanthine determination in allopurinol-treated leaves/leaf discs during dark stress; format: in vivo, Arabidopsis thaliana; conditions: allopurinol applied to wild type plants
Protocol: as §1
Ureides were extracted from leaves with 80% ethanol and determined according to Vogels G. D. and Van Der Drift C. (1970 Anal Biochem 33, 143-157) using allantoic acid and allantoin as references. Six samples were analyzed and averaged for each data points. […] Hypoxanthine/xanthine were determined by high performance liquid chromatography (HPLC) using a 100×2.1 mm ID, ODS-Hypersil (5 μm) column. […] The hypoxanthine and xanthine were detected using standards retention time and UV absorption spectra ratio at 249 nm and 267 nm. […]

[5] = tested on: Parsley leaf discs; assay: Allantoin application on senescence in parsley leaf discs exposed to dark stress, chlorophyll content; format: in vivo
Protocol: FIG. 14 relates to the influence of allantoin application on senescence in parsley leaf discs exposed to dark stress. Parsley leaf discs were kept for 2 days in the light and then transferred to the dark for additional 2 days with or without the addition of 0 to 10 mM allantoin. CL—control undetached leaves in the light.
Reference is also made to FIG. 14 showing that allantoin application prevents leaf spoilage in Parsley. Parsley leaf discs were kept for 2 days in the light and then for 2 days in the dark with or without the addition of 0 to 10 mM allantoin. Undetached leaves kept in the light served as control (CL). The influence of allantoin application on senescence in parsley was examined by measuring the chlorophyll content relative to the content in the control undeteched leaves.

[6] = tested on: tomato leaf discs; assay: Allantoin application to tomato leaf discs, chlorophyll degradation; format: in vivo; conditions: 0.1 mM and 0.5 mM allantoin; discs 2 days dark then 2 days light

What does the source list for NC(=O)NC(NC(N)=O)C(=O)O [allantoate]?
protection from chlorophyll degradation [1]: protected the treated leaf discs from chlorophyll degradation; reduction in DAB staining intensity (H2O2) [2]: 2 fold; NBT staining (superoxide) [3]: significantly reduced staining

How did the effect on chlorophyll ([1]; 1 mM xanthine, 48 h in the dark, sampled after 24 h in the light, Col and Ri leaf discs) turn out when O=c1[nH]c(=O)c2[nH]cnc2[nH]1 [xanthine] was run?
Its effect on chlorophyll is “caused a reduction in chlorophyll”.

Which “effect on xanthine-caused reduction in chlorophyll” value ([1]; allopurinol 1 mM in the presence of 1 mM xanthine, wild type and mutant Ri lines) does the source give for Oc1ncnc2[nH]ncc12 [allopurinol, reference compound] here?
The value was “exacerbated”.

And the xanthine accumulation [4]?
Its xanthine accumulation is “led to xanthine accumulation”.

How did the “protection from chlorophyll degradation” value [1] turn out when NC(=O)NC1NC(=O)NC1=O (stereo not drawn) [allantoin] was run?
Its value is “protected the treated leaf discs from chlorophyll degradation”.

What about the “prevention of chlorophyll loss (chlorophyll content relative to control undetached leaves)” value ([5]; 0.1-0.5 mM allantoin, 2 days light then 2 days dark) of the same molecule?
Its value is “particularly effective in preventing the chlorophyll loss”.

What about the “protection of leaves from chlorophyll degradation and yellowing” value ([5]; 0.1-10 mM allantoin, summary of parsley and tomato leaf disc results) of the same molecule?
Its value is “protects leaves from chlorophyll degradation and yellowing”.

What about the “reduction in DAB staining intensity (H2O2)” value [2] of the same molecule?
Its value is 2 fold.

And the chlorophyll degradation [6]?
The chlorophyll degradation was “delayed the chlorophyll degradation”.

What about the “NBT staining (superoxide)” value [3] of the same molecule?
The value was “significantly reduced staining”.
